From ChEMBL document CHEMBL5352433, “Design, synthesis, and biological evaluation of low-toxic lappaconitine derivatives as potential analgesics” (Eur J Med Chem, 2022)

Tested on: Mus musculus
Assay: Analgesic activity against acetic acid-induced Kunming writhing mouse model assessed as inhibition of writhing at 10 mg/kg, sc pretreated with compound for 15 mins followed by acetic acid addition and measured after 15 mins relative to control
Type: functional
Conditions: 0.5 h, time 30 min

| Compound | inhibition in vivo at 10 mg/kg |
| --- | --- |
| CCN1C[C@]2(OC(=O)c3ccccc3NC(=O)c3ccc([N+](=O)[O-])cc3)CC[C@H](OC)[C@]34C1[C@H](C[C@H]23)[C@@]1(O)C[C@H](OC)[C@H]2C[C@@H]4[C@]1(O)[C@H]2OC | 27.2% |
| CCCCCCC(=O)Nc1ccccc1C(=O)O[C@@]12CC[C@H](OC)[C@]34C([C@H](C[C@H]13)[C@@]1(O)C[C@H](OC)[C@H]3C[C@@H]4[C@]1(O)[C@H]3OC)N(CC)C2 | 54.2% |
| CCN1C[C@]2(OC(=O)c3ccccc3NS(=O)(=O)c3ccccc3F)CC[C@H](OC)[C@]34C1[C@H](C[C@H]23)[C@@]1(O)C[C@H](OC)[C@H]2C[C@@H]4[C@]1(O)[C@H]2OC | 60.3% |
| CCN1C[C@]2(OC(=O)c3ccccc3NC(=O)c3ccc(Cl)s3)CC[C@H](OC)[C@]34C1[C@H](C[C@H]23)[C@@]1(O)C[C@H](OC)[C@H]2C[C@@H]4[C@]1(O)[C@H]2OC | 27.8% |
| CCN1C[C@]2(OC(=O)c3ccccc3NS(=O)(=O)CC)CC[C@H](OC)[C@]34C1[C@H](C[C@H]23)[C@@]1(O)C[C@H](OC)[C@H]2C[C@@H]4[C@]1(O)[C@H]2OC | 4% |
| CCN1C[C@]2(OC(=O)c3ccccc3NS(=O)(=O)c3ccc(Cl)s3)CC[C@H](OC)[C@]34C1[C@H](C[C@H]23)[C@@]1(O)C[C@H](OC)[C@H]2C[C@@H]4[C@]1(O)[C@H]2OC | 31.3% |
| CCN1C[C@]2(OC(=O)c3ccccc3NC(=O)c3ccc(Cl)cc3)CC[C@H](OC)[C@]34C1[C@H](C[C@H]23)[C@@]1(O)C[C@H](OC)[C@H]2C[C@@H]4[C@]1(O)[C@H]2OC | 31.6% |
| CCN1C[C@]2(OC(=O)c3ccccc3NC(=O)c3ccc(Br)s3)CC[C@H](OC)[C@]34C1[C@H](C[C@H]23)[C@@]1(O)C[C@H](OC)[C@H]2C[C@@H]4[C@]1(O)[C@H]2OC | 12.8% |
| CCN1C[C@]2(OC(=O)c3ccccc3NS(=O)(=O)c3ccc(-c4ccccc4)cc3)CC[C@H](OC)[C@]34C1[C@H](C[C@H]23)[C@@]1(O)C[C@H](OC)[C@H]2C[C@@H]4[C@]1(O)[C@H]2OC | 16.1% |
| CCN1C[C@]2(OC(=O)c3ccccc3NS(=O)(=O)c3cc(F)cc(F)c3)CC[C@H](OC)[C@]34C1[C@H](C[C@H]23)[C@@]1(O)C[C@H](OC)[C@H]2C[C@@H]4[C@]1(O)[C@H]2OC | 37.5% |
| CCN1C[C@]2(OC(=O)c3ccccc3NS(=O)(=O)c3cccc(Br)c3)CC[C@H](OC)[C@]34C1[C@H](C[C@H]23)[C@@]1(O)C[C@H](OC)[C@H]2C[C@@H]4[C@]1(O)[C@H]2OC | 13% |
| CCN1C[C@]2(OC(=O)c3ccccc3NC(=O)c3ccc(OC)c(OC)c3)CC[C@H](OC)[C@]34C1[C@H](C[C@H]23)[C@@]1(O)C[C@H](OC)[C@H]2C[C@@H]4[C@]1(O)[C@H]2OC | 34.6% |
| CCN1C[C@]2(OC(=O)c3ccccc3NS(=O)(=O)c3ccccc3C(F)(F)F)CC[C@H](OC)[C@]34C1[C@H](C[C@H]23)[C@@]1(O)C[C@H](OC)[C@H]2C[C@@H]4[C@]1(O)[C@H]2OC | 55.2% |
| CCCOc1ccccc1C(=O)Nc1ccccc1C(=O)O[C@@]12CC[C@H](OC)[C@]34C([C@H](C[C@H]13)[C@@]1(O)C[C@H](OC)[C@H]3C[C@@H]4[C@]1(O)[C@H]3OC)N(CC)C2 | 19.2% |
| CCN1C[C@]2(OC(=O)c3ccccc3NS(=O)(=O)c3ccccc3[N+](=O)[O-])CC[C@H](OC)[C@]34C1[C@H](C[C@H]23)[C@@]1(O)C[C@H](OC)[C@H]2C[C@@H]4[C@]1(O)[C@H]2OC | 58.5% |
| CCN1C[C@]2(OC(=O)c3ccccc3NC(=O)c3ccccc3Cl)CC[C@H](OC)[C@]34C1[C@H](C[C@H]23)[C@@]1(O)C[C@H](OC)[C@H]2C[C@@H]4[C@]1(O)[C@H]2OC | 4.4% |
| CCN1C[C@]2(OC(=O)c3ccccc3NC(=O)c3cccc(OC)c3)CC[C@H](OC)[C@]34C1[C@H](C[C@H]23)[C@@]1(O)C[C@H](OC)[C@H]2C[C@@H]4[C@]1(O)[C@H]2OC | 0% |
| CCN1C[C@]2(OC(=O)c3ccccc3NS(=O)(=O)c3cc(OC)ccc3OC)CC[C@H](OC)[C@]34C1[C@H](C[C@H]23)[C@@]1(O)C[C@H](OC)[C@H]2C[C@@H]4[C@]1(O)[C@H]2OC | 65.8% |
| CCN1C[C@]2(OC(=O)c3ccccc3NS(=O)(=O)c3ccc(F)cc3)CC[C@H](OC)[C@]34C1[C@H](C[C@H]23)[C@@]1(O)C[C@H](OC)[C@H]2C[C@@H]4[C@]1(O)[C@H]2OC | 14.7% |
| CCN1C[C@]2(OC(=O)c3ccccc3NS(=O)(=O)c3ccc(OC)cc3OC)CC[C@H](OC)[C@]34C1[C@H](C[C@H]23)[C@@]1(O)C[C@H](OC)[C@H]2C[C@@H]4[C@]1(O)[C@H]2OC | 34.9% |

| Compound | inhibition in vivo at 10 mg/kg |
| --- | --- |
| CCN1C[C@]2(OC(=O)c3ccccc3NC(=O)c3ccc(I)cc3)CC[C@H](OC)[C@]34C1[C@H](C[C@H]23)[C@@]1(O)C[C@H](OC)[C@H]2C[C@@H]4[C@]1(O)[C@H]2OC | 31.1% |
| CCN1C[C@]2(OC(=O)c3ccccc3NS(=O)(=O)c3cc(F)c(F)cc3F)CC[C@H](OC)[C@]34C1[C@H](C[C@H]23)[C@@]1(O)C[C@H](OC)[C@H]2C[C@@H]4[C@]1(O)[C@H]2OC | 26% |
| CCN1C[C@]2(OC(=O)c3ccccc3NC(=O)c3cnc(Cl)cn3)CC[C@H](OC)[C@]34C1[C@H](C[C@H]23)[C@@]1(O)C[C@H](OC)[C@H]2C[C@@H]4[C@]1(O)[C@H]2OC | 31.5% |
| CCN1C[C@]2(OC(=O)c3ccccc3NS(=O)(=O)Cc3ccccc3)CC[C@H](OC)[C@]34C1[C@H](C[C@H]23)[C@@]1(O)C[C@H](OC)[C@H]2C[C@@H]4[C@]1(O)[C@H]2OC | 43.8% |
| CCN1C[C@]2(OC(=O)c3ccccc3NS(=O)(=O)c3cccc(OC)c3)CC[C@H](OC)[C@]34C1[C@H](C[C@H]23)[C@@]1(O)C[C@H](OC)[C@H]2C[C@@H]4[C@]1(O)[C@H]2OC | 37.1% |
| CCN1C[C@]2(OC(=O)c3ccccc3NC(=O)c3ccc(C(C)C)cc3)CC[C@H](OC)[C@]34C1[C@H](C[C@H]23)[C@@]1(O)C[C@H](OC)[C@H]2C[C@@H]4[C@]1(O)[C@H]2OC | 21% |
| CCN1C[C@]2(OC(=O)c3ccccc3NS(=O)(=O)c3ccc(C#N)cc3)CC[C@H](OC)[C@]34C1[C@H](C[C@H]23)[C@@]1(O)C[C@H](OC)[C@H]2C[C@@H]4[C@]1(O)[C@H]2OC | 21.4% |
| CCN1C[C@]2(OC(=O)c3ccccc3NS(=O)(=O)c3cccc([N+](=O)[O-])c3)CC[C@H](OC)[C@]34C1[C@H](C[C@H]23)[C@@]1(O)C[C@H](OC)[C@H]2C[C@@H]4[C@]1(O)[C@H]2OC | 6.7% |
| CCN1C[C@]2(OC(=O)c3ccccc3NS(=O)(=O)c3ccccc3Cl)CC[C@H](OC)[C@]34C1[C@H](C[C@H]23)[C@@]1(O)C[C@H](OC)[C@H]2C[C@@H]4[C@]1(O)[C@H]2OC | 64.3% |
| CCN1C[C@]2(OC(=O)c3ccccc3NC(=O)c3ccccc3Br)CC[C@H](OC)[C@]34C1[C@H](C[C@H]23)[C@@]1(O)C[C@H](OC)[C@H]2C[C@@H]4[C@]1(O)[C@H]2OC | 0% |
| CCN1C[C@]2(OC(=O)c3ccccc3NS(=O)(=O)c3ccccc3C#N)CC[C@H](OC)[C@]34C1[C@H](C[C@H]23)[C@@]1(O)C[C@H](OC)[C@H]2C[C@@H]4[C@]1(O)[C@H]2OC | 53.9% |
| CCN1C[C@]2(OC(=O)c3ccccc3NS(=O)(=O)c3cccnc3)CC[C@H](OC)[C@]34C1[C@H](C[C@H]23)[C@@]1(O)C[C@H](OC)[C@H]2C[C@@H]4[C@]1(O)[C@H]2OC | 32.3% |
| CCN1C[C@]2(OC(=O)c3ccccc3NS(=O)(=O)c3ccc(Cl)cc3)CC[C@H](OC)[C@]34C1[C@H](C[C@H]23)[C@@]1(O)C[C@H](OC)[C@H]2C[C@@H]4[C@]1(O)[C@H]2OC | 11.7% |
| CCN1C[C@]2(OC(=O)c3ccccc3NC(=O)c3ccccc3F)CC[C@H](OC)[C@]34C1[C@H](C[C@H]23)[C@@]1(O)C[C@H](OC)[C@H]2C[C@@H]4[C@]1(O)[C@H]2OC | 17.7% |
| CCN1C[C@]2(OC(=O)c3ccccc3NS(=O)(=O)c3cccc(C(F)(F)F)c3)CC[C@H](OC)[C@]34C1[C@H](C[C@H]23)[C@@]1(O)C[C@H](OC)[C@H]2C[C@@H]4[C@]1(O)[C@H]2OC | 12.8% |
| CCN1C[C@]2(OC(=O)c3ccccc3NC(=O)C3CCOC3)CC[C@H](OC)[C@]34C1[C@H](C[C@H]23)[C@@]1(O)C[C@H](OC)[C@H]2C[C@@H]4[C@]1(O)[C@H]2OC (stereo not given in full) | 34% |
| CCN1C[C@]2(OC(=O)c3ccccc3NC(=O)c3ccc(Cl)cc3Cl)CC[C@H](OC)[C@]34C1[C@H](C[C@H]23)[C@@]1(O)C[C@H](OC)[C@H]2C[C@@H]4[C@]1(O)[C@H]2OC | 31.2% |
| CCN1C[C@]2(OC(=O)c3ccccc3NC(=O)c3cccc(Br)c3)CC[C@H](OC)[C@]34C1[C@H](C[C@H]23)[C@@]1(O)C[C@H](OC)[C@H]2C[C@@H]4[C@]1(O)[C@H]2OC | 3.4% |
| CCN1C[C@]2(OC(=O)c3ccccc3NS(=O)(=O)c3cccc4cccnc34)CC[C@H](OC)[C@]34C1[C@H](C[C@H]23)[C@@]1(O)C[C@H](OC)[C@H]2C[C@@H]4[C@]1(O)[C@H]2OC | 42.4% |
| CCN1C[C@]2(OC(=O)c3ccccc3NC(=O)c3ccc(Br)cc3)CC[C@H](OC)[C@]34C1[C@H](C[C@H]23)[C@@]1(O)C[C@H](OC)[C@H]2C[C@@H]4[C@]1(O)[C@H]2OC | 39.4% |
